Residues, ends and D or L forms follow the SMILES beside them.
Columns and labels:
Format in all cases: cell-based
P. aeruginosa = test: chequerboard assay (percentage of positive control, MIC, FIC) against P. aeruginosa; conditions: for MIC: Pseudomonas aeruginosa, read-out: MIC Monotherapy (X)
Text: (§1) FICI or fractional inhibitory concentration index is the sum of the FICs of each antimicrobial when used in combination. The FIC or fractional inhibitory concentration of an antimicrobial in a combination, is the MIC of the antimicrobial in the combination divided by the MIC of the same antimicrobial when used alone. Minimum inhibitory concentrations are defined in the art as the lowest concentration of an antimicrobial that will inhibit the visible growth of a microorganism after overnight incubation.
(§2) In the method for a 3-mer combination, one antibiotic was “fixed” as part of a backbone whilst the two other antibiotics were varied over a doubling concentration scale beginning at the MIC (×1) for the effective dose in monotherapy against the organism being tested. The ΣFIC was then calculated as shown below. In the method for a 4-mer combination, two antibiotics were “fixed” as part of a backbone whilst the two other antibiotics were varied over a doubling concentration scale beginning at the MIC (×1) for the effective dose in monotherapy against the organism being tested.
(§3) The ΣFIC was divided by “0.5/n” where n=number of antimicrobials in the combination to provide FIC. The inventors opted for this expression because it more closely aligns with the 2-mer synergy levels. The same FIC scale as used for 2-mers was applied: synergy is observed when FIC is <0.5. An “Additive” effect is observed when FIC is 0.5 to <1. Indifference is observed when FIC is 1 to <2. Antagonism is observed when FIC is 2 to 4.
(§4) The antimicrobial agents were sourced from commercially available sources. They were prepared by being weighed and dissolved in water, PBS, DMSO or acidified water to a final concentration from 1-10 mg/mL. Antimicrobial solutions were diluted to 10× highest concentration used in the experiment and subsequently diluted 2× over a series not exceeding 11 serial dilutions. These left the operator with a maximum of 12 different, descending concentrations of the chosen antimicrobials.
(§5) The bacteria were obtained from Ninewells Hospital and Medical School in Dundee, Scotland. They were obtained as patient strains and characterised by Vitek 2 screening. To prepare for the Examples below, the bacteria were grown overnight in Mueller Hinton Cation adjusted broth or until confluent in media with or without supplements. The bacteria were measured for OD600 and readings of <0.25 were returned to the incubator.
(§6) All data herein was produced using the same chequerboard assay.
(§7) 20 μL of antibiotic A (backbone), at a single dilution, was pipetted into all wells of a 96-well plate to be used.
(§8) 20 μL of the lowest concentration of antibiotic B (first variable) was pipetted into column 1 of the 96-well plate. The second concentration (2-fold more concentrate) was pipetted into column 2. This process was repeated until all concentrations of antibiotic B to be used were complete.
(§9) 20 μL of the lowest concentration of antibiotic C (second variable) were pipetted into row A of the 96-well plate. The second concentration (2-fold more concentrate) was pipetted into row B. This process was repeated until all concentrations of antibiotic C to be used were complete.
(§10) 120 μL of sterile media (BHI/MHB2) was added.
(§11) 20 ul of prepared bacterial culture was added.
(§12) Plates were sealed with lids and left to incubate for 16 hours, overnight.
(§13) Plates were read at OD600 in a 96-well plate reader. These are the values reported in the chequerboards below.
(§14) As a tri-mer combination, two antibiotic concentrations were varied while one remained constant, the latter is the “backbone”. For the 4-mer combination, two antibiotic concentrations were varied while two remained constant, the latter is the “backbone”. This method is explained above along with the calculation of the FICI and the indicative value for synergy, indifference and antagonism.
The method was identical to Comparative Example 1, except the isolate was P. aeruginosa.

A. baumannii = test: chequerboard assay (percentage of positive control, MIC, FIC) against A. baumannii; conditions: for concentration up to which the isolate was resistant to the agent / MIC: A. baumannii isolate, agent alone; for MIC: Acinetobacter baumannii, read-out: MIC Monotherapy (X)
Text: as §1, §2, §3, §4, §5, §6, §7, §8, §9, §10, §11, §12, §13, §14
The method was identical to Comparative Example 1. The isolate was A. baumannii.

K. pneumoniae CPE = test: chequerboard assay (OD600, FIC) against K. pneumoniae CPE; conditions: agent alone
[1] = tested on: Methicillin-resistant Staphylococcus aureus (MRSA); test: chequerboard assay (percentage of positive control, MIC, FIC) against MRSA; conditions: for MIC: Staphylococcus aureus, agent alone, MRSA isolate, read-out: MIC Monotherapy (X)
Text: as §1, §2, §3, §4, §5, §6, §7, §8, §9, §10, §11, §12, §13, §14
The method was identical to Comparative Example 1. The isolate was Methicillin-resistant Staphylococcus aureus (MRSA).

ESBL E. coli = test: chequerboard assay (OD600, MIC, FIC) against ESBL E. coli; conditions: for MIC: Escherichia coli, agent alone, ESBL E. coli isolate, read-out: MIC Monotherapy (X)
Text: as §1, §2, §3, §4, §5, §6, §7, §8, §9, §10, §11, §12, §13, §14

[2] = agent alone, P. aeruginosa isolate
[3] = agent within AZT + ceftazidime + colistin (Example 17)
[4] = agent within AZT + fosfomycin + colistin (Example 15)
[5] = agent within AZT + meropenem + colistin + fosfomycin (Example 14)
[6] = agent within zidovudine + meropenem + colistin + ceftazidime (Example 13)
[7] = agent within zidovudine + meropenem + colistin + fosfomycin (Example 14)
[8] = agent within AZT + colistin + ceftazidime (Example 17)
[9] = agent within AZT + ceftazidime + meropenem (Example 16)
[10] = agent within ceftazidime + levofloxacin + fosfomycin (Example 18)
[11] = agent within ceftazidime + levofloxacin + meropenem (Example 19)
[12] = agent within ceftazidime + AZT + doxycycline (Example 3)
[13] = P. aeruginosa isolate, agent alone

Row | Compound | MIC (P. aeruginosa; [2]) [µg/mL] | MIC combination therapy (Y) (P. aeruginosa; [3]) [µg/mL] | MIC combination therapy (Y) (P. aeruginosa; [4]) [µg/mL] | Ratio Y:X (P. aeruginosa; [4]) | MIC combination therapy (Y) (P. aeruginosa; [6]) [µg/mL] | MIC combination therapy (Y) (P. aeruginosa; [7]) [µg/mL] | MIC (A. baumannii) [µg/mL] | MIC combination therapy (Y) (A. baumannii; [8]) [µg/mL] | MIC combination therapy (Y) (A. baumannii; [4]) [µg/mL] | Ratio Y:X (A. baumannii; [4]) | MIC combination therapy (Y) (P. aeruginosa; [9]) [µg/mL] | MIC combination therapy (Y) [1, 10] [µg/mL] | MIC combination therapy (Y) [1, 11] [µg/mL] | MIC combination therapy (Y) (ESBL E. coli; [12]) [µg/mL] | MIC [1] [µg/mL] | also measured
1 | CCC(C)CCCC(=O)N[C@@H](CCN)C(=O)N[C@H](C(=O)N[C@@H](CCN)C(=O)N[C@H]1CCNC(=O)[C@H]([C@@H](C)O)NC(=O)[C@H](CCN)NC(=O)[C@H](CCN)NC(=O)[C@H](CC(C)C)NC(=O)[C@@H](CC(C)C)NC(=O)[C@H](CCN)NC1=O)[C@@H](C)O (stereo partly drawn) (HELM PEPTIDE1{[CCC(C)CCCC(=O)[*:2]].[Dab].T.[Dab].[Dab].[Dab].[dL].L.[Dab].[Dab].T}$PEPTIDE1,PEPTIDE1,5:R3-11:R2$$$V2.0) | 512 | 4 | 0.5 | 0.000977 | 2 | 32 | 128 | 32 | 0.5 | 0.003906 | – | – | – | – | – | Ratio Y:X (P. aeruginosa; [3]): 0.007813; Ratio Y:X (P. aeruginosa; agent within AZT + meropenem + colistin + ceftazidime (Example 13)): 0.003906; Ratio Y:X (P. aeruginosa; [5]): 0.0625; concentration up to which the isolate was resistant to the agent (A. baumannii): 64 mg/L; Ratio Y:X (A. baumannii; [8]): 0.25; concentration at which the isolate was resistant to the agent (K. pneumoniae CPE): ≥ 8 mg/L
2 | CC(C)(O/N=C(\C(=O)N[C@@H]1C(=O)N2C(C(=O)[O-])=C(C[n+]3ccccc3)CS[C@H]12)c1csc(N)n1)C(=O)O [Ceftazidime] | 512 | 1 | – | – | 1 | – | 512 | 32 | – | – | 0.5 | 16 | 1 | 4 | – | concentration at which the isolate was resistant to the agent (K. pneumoniae CPE): 4 mg/L
3 | C[C@H]1c2cccc(O)c2C(=O)C2=C(O)[C@]3(O)C(=O)C(C(N)=O)=C(O)[C@@H](N(C)C)[C@@H]3[C@@H](O)[C@@H]21 [Doxycycline] | – | – | – | – | – | – | – | – | – | – | – | – | – | 0.5 | – | MIC (ESBL E. coli): 1 µg/mL
4 | C[C@@H]1O[C@@H]1P(=O)(O)O [Fosfomycin] | 256 | – | 16 | 0.125 | – | 4 | 256 | – | 32 | 0.125 | – | 2 | – | – | 16 | concentration up to which the isolate was resistant to the agent (P. aeruginosa; [13]): 64 mg/L; MIC Monotherapy (X) (P. aeruginosa; [2]): 128 µg/mL; Ratio Y:X (P. aeruginosa; [5]): 0.01562; Ratio Y:X [1, 10]: 0.125; concentration up to which the isolate was resistant to the agent (A. baumannii): 128 mg/L
5 | C[C@H]1COc2c(N3CCN(C)CC3)c(F)cc3c(=O)c(C(=O)O)cn1c23 [Levo, Levofloxacin] | – | – | – | – | – | – | – | – | – | – | – | 0.125 | 0.25 | – | 1 | Ratio Y:X [1, 10]: 0.125; Ratio Y:X [1, 11]: 0.25
6 | C[C@@H](O)[C@H]1C(=O)N2C(C(=O)O)=C(S[C@@H]3CN[C@H](C(=O)N(C)C)C3)[C@H](C)[C@H]12 [Meropenem] | 32 | – | – | – | 2 | 4 | – | – | – | – | 4 | – | 4 | – | 32 | concentration up to which the isolate was resistant to the agent (P. aeruginosa; [13]): 64 mg/L
7 | Cc1cn([C@H]2C[C@H](N=[N+]=[N-])[C@@H](CO)O2)c(=O)[nH]c1=O [Zidovudine, 1-[(2R, 4S, 5S)-4-Azido-5-(hydroxymethyl)oxolan-2-yl]-5-methylpyrimidine-2,4-dione] | 512 | 2 | 0.5 | 0.000977 | 1 | 1 | 512 | 4 | 0.5 | 0.000977 | 8 | – | – | 0.125 | – | Ratio Y:X (P. aeruginosa; [3]): 0.003906; Ratio Y:X (P. aeruginosa; [9]): 0.01562; Ratio Y:X (P. aeruginosa; [6]): 0.001953; Ratio Y:X (P. aeruginosa; [7]): 0.001953; Ratio Y:X (A. baumannii; [8]): 0.007813; MIC (ESBL E. coli): 1 µg/mL; Ratio Y:X (ESBL E. coli; [12]): 0.125

— patent US20260097045A1, “ANTIMICROBIAL COMBINATIONS” (Helperby Therapeutics Limited, priority 2022, published 2026)
